Experimental data as given in the supplement of paper PMC10307832.

Assays:
Assay in all cases: relative viability (nuclei count vs DMSO), 5 days (fraction); higher = more cells survive
A-427 = test system: A-427
Method in brief: (§1)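 For relative viability, nuclei counts in treated wells were divided by those in vehicle wells. Lung cancer cell lines had been pin-tool dosed in 1536-well plates the day after seeding and cultured for 5 days, then fixed and stained in one step (final 0.05% Triton X-100, 1% formaldehyde, 1 ug/ml Hoechst) and imaged at 4×. Doses were one drug alone or a fixed anchor-drug dose plus five library-drug doses (not always all listed) in √10 steps, and values are duplicate-plate medians.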

HCC-15 = test system: HCC-15
Method in brief: as §1

HCC-78 = test system: HCC-78
Method in brief: as §1

HOP-62 = test system: HOP-62
Method in brief: as §1

LC-2-ad = test system: LC-2-ad
Method in brief: as §1

LOU-NH91 = test system: LOU-NH91
Method in brief: as §1

LXF-289 = test system: LXF-289
Method in brief: as §1

NCI-H1734 = test system: NCI-H1734
Method in brief: as §1

NCI-H1755 = test system: NCI-H1755
Method in brief: as §1

NCI-H1792 = test system: NCI-H1792
Method in brief: as §1

NCI-H1915 = test system: NCI-H1915
Method in brief: as §1

NCI-H1975 = test system: NCI-H1975
Method in brief: as §1

NCI-H2126 = test system: NCI-H2126
Method in brief: as §1

NCI-H2228 = test system: NCI-H2228
Method in brief: as §1

NCI-H2342 = test system: NCI-H2342
Method in brief: as §1

NCI-H2347 = test system: NCI-H2347
Method in brief: as §1

NCI-H358 = test system: NCI-H358
Method in brief: as §1

NCI-H460 = test system: NCI-H460
Method in brief: as §1

NCI-H522 = test system: NCI-H522
Method in brief: as §1

NCI-H647 = test system: NCI-H647
Method in brief: as §1

PC-3 [JPC-3] = test system: PC-3 [JPC-3]
Method in brief: as §1

RERF-LC-KJ = test system: RERF-LC-KJ
Method in brief: as §1

SK-LU-1 = test system: SK-LU-1
Method in brief: as §1

SW 1573 = test system: SW 1573
Method in brief: as §1

`C[C@@H]1CN(CC(=O)Nc2ccc3c(c2)Cc2cccc(-c4cc(=O)cc(N5CCOCC5)o4)c2S3)C[C@H](C)O1` + N=C(N)NC(=N)NCCc1ccccc1 [Phenformin] (partner 250 µM) was tested, and the relative viability (A-427; first compound 0.04 µM) was 0.298, the relative viability (A-427; first compound 0.1265 µM) was 0.35 and the relative viability (A-427; first compound 0.4 µM) was 0.284. The relative viability (A-427; first compound 4 µM) was 0.285, the relative viability (HCC-15; first compound 0.04 µM) was 0.479 and the relative viability (HCC-15; first compound 0.1265 µM) was 0.437. For the same compound, the relative viability (HCC-15; first compound 0.4 µM) was 0.401, the relative viability (HCC-15; first compound 4 µM) was 0.363 and the relative viability (HCC-78; first compound 0.04 µM) was 0.656. For the same compound, the relative viability (HCC-78; first compound 0.1265 µM) was 0.661, the relative viability (HCC-78; first compound 0.4 µM) was 0.658 and the relative viability (HCC-78; first compound 4 µM) was 0.619. For the same compound, the relative viability (HOP-62; first compound 0.04 µM) was 0.613, the relative viability (HOP-62; first compound 0.1265 µM) was 0.689 and the relative viability (HOP-62; first compound 0.4 µM) was 0.715. It also gave a relative viability (HOP-62; first compound 4 µM) of 0.615, a relative viability (LC-2-ad; first compound 0.04 µM) of 0.695 and a relative viability (LC-2-ad; first compound 0.1265 µM) of 0.593. The relative viability (LC-2-ad; first compound 0.4 µM) was 0.587, the relative viability (LC-2-ad; first compound 4 µM) was 0.662 and the relative viability (LOU-NH91; first compound 0.04 µM) was 0.792. The relative viability (LOU-NH91; first compound 0.1265 µM) was 0.691, the relative viability (LOU-NH91; first compound 0.4 µM) was 0.696 and the relative viability (LOU-NH91; first compound 4 µM) was 0.667. It also gave a relative viability (LXF-289; first compound 0.04 µM) of 0.482, a relative viability (LXF-289; first compound 0.1265 µM) of 0.517 and a relative viability (LXF-289; first compound 0.4 µM) of 0.549. For the same compound, the relative viability (LXF-289; first compound 4 µM) was 0.517, the relative viability (NCI-H1734; first compound 0.04 µM) was 0.429 and the relative viability (NCI-H1734; first compound 0.1265 µM) was 0.392. The relative viability (NCI-H1734; first compound 0.4 µM) was 0.366, the relative viability (NCI-H1734; first compound 4 µM) was 0.399 and the relative viability (NCI-H1755; first compound 0.04 µM) was 0.611. The relative viability (NCI-H1755; first compound 0.1265 µM) was 0.603, the relative viability (NCI-H1755; first compound 0.4 µM) was 0.698 and the relative viability (NCI-H1755; first compound 4 µM) was 0.586. The relative viability (NCI-H1792; first compound 0.04 µM) was 0.35, the relative viability (NCI-H1792; first compound 0.4 µM) was 0.303 and the relative viability (NCI-H1792; first compound 4 µM) was 0.526. It also gave a relative viability (NCI-H1915; first compound 0.04 µM) of 0.379, a relative viability (NCI-H1915; first compound 0.1265 µM) of 0.388 and a relative viability (NCI-H1915; first compound 0.4 µM) of 0.382. The relative viability (NCI-H1915; first compound 4 µM) was 0.362, the relative viability (NCI-H1975; first compound 0.04 µM) was 0.437 and the relative viability (NCI-H1975; first compound 0.1265 µM) was 0.39. It also gave a relative viability (NCI-H1975; first compound 0.4 µM) of 0.393, a relative viability (NCI-H1975; first compound 4 µM) of 0.332 and a relative viability (NCI-H2126; first compound 0.04 µM) of 0.573. For the same compound, the relative viability (NCI-H2126; first compound 0.1265 µM) was 0.528, the relative viability (NCI-H2126; first compound 0.4 µM) was 0.531 and the relative viability (NCI-H2126; first compound 4 µM) was 0.454. For the same compound, the relative viability (NCI-H2228; first compound 0.04 µM) was 0.356, the relative viability (NCI-H2228; first compound 0.1265 µM) was 0.406 and the relative viability (NCI-H2228; first compound 0.4 µM) was 0.287. The relative viability (NCI-H2228; first compound 4 µM) was 0.289, the relative viability (NCI-H2342; first compound 0.04 µM) was 0.625 and the relative viability (NCI-H2342; first compound 0.1265 µM) was 0.568. It also gave a relative viability (NCI-H2342; first compound 0.4 µM) of 0.525, a relative viability (NCI-H2342; first compound 4 µM) of 0.519 and a relative viability (NCI-H2347; first compound 0.04 µM) of 0.412. The relative viability (NCI-H2347; first compound 0.1265 µM) was 0.547, the relative viability (NCI-H2347; first compound 0.4 µM) was 0.368 and the relative viability (NCI-H2347; first compound 4 µM) was 0.449. It also gave a relative viability (NCI-H358; first compound 0.04 µM) of 0.362, a relative viability (NCI-H358; first compound 0.1265 µM) of 0.28 and a relative viability (NCI-H358; first compound 0.4 µM) of 0.371. It also gave a relative viability (NCI-H358; first compound 4 µM) of 0.28, a relative viability (NCI-H460; first compound 0.04 µM) of 0.566 and a relative viability (NCI-H460; first compound 0.1265 µM) of 0.488. For the same compound, the relative viability (NCI-H460; first compound 0.4 µM) was 0.605, the relative viability (NCI-H460; first compound 4 µM) was 0.392 and the relative viability (NCI-H522; first compound 0.04 µM) was 0.72. For the same compound, the relative viability (NCI-H522; first compound 0.1265 µM) was 0.718, the relative viability (NCI-H522; first compound 0.4 µM) was 0.635 and the relative viability (NCI-H522; first compound 4 µM) was 0.608. It also gave a relative viability (NCI-H647; first compound 0.04 µM) of 0.472, a relative viability (NCI-H647; first compound 0.1265 µM) of 0.456 and a relative viability (NCI-H647; first compound 0.4 µM) of 0.606. It also gave a relative viability (NCI-H647; first compound 4 µM) of 0.504, a relative viability (PC-3 [JPC-3]; first compound 0.04 µM) of 0.494 and a relative viability (PC-3 [JPC-3]; first compound 0.1265 µM) of 0.469. The relative viability (PC-3 [JPC-3]; first compound 0.4 µM) was 0.475, the relative viability (PC-3 [JPC-3]; first compound 4 µM) was 0.488 and the relative viability (RERF-LC-KJ; first compound 0.04 µM) was 0.422. The relative viability (RERF-LC-KJ; first compound 0.1265 µM) was 0.368, the relative viability (RERF-LC-KJ; first compound 0.4 µM) was 0.379 and the relative viability (RERF-LC-KJ; first compound 4 µM) was 0.323. For the same compound, the relative viability (SK-LU-1; first compound 0.04 µM) was 0.621, the relative viability (SK-LU-1; first compound 0.1265 µM) was 0.531 and the relative viability (SK-LU-1; first compound 0.4 µM) was 0.516. For the same compound, the relative viability (SK-LU-1; first compound 4 µM) was 0.373, the relative viability (SW 1573; first compound 0.04 µM) was 0.438 and the relative viability (SW 1573; first compound 0.1265 µM) was 0.315. For the same compound, the relative viability (SW 1573; first compound 0.4 µM) was 0.301 and the relative viability (SW 1573; first compound 4 µM) was 0.312.
